Assay results published in patent US20250213701A1, “MEDICAMENT FOR TREATING HUMAN TUMOR BASED ON ERF3A-TARGETING PROTEOLYSIS MECHANISM” (SUZHOU DEGEN BIO-MEDICAL CO., LTD., priority 2022, published 2025).

Tests used:
Type in all cases: cell-based, human
[1] = tested on: 22Rv1 cells; experiment: Anti-proliferative toxicity against prostate cancer cell line 22Rv1 (CCK8); settings: 3 days, CCK8
How it was run: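 22Rv1 cells pre-cultured for 48 h, then exposed to compounds at 0.00001-1.0 μM final, in triplicate, for 3 days. Viability read by CCK8 absorbance at 450 nm after 1-4 h at 37 °C.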

[2] = tested on: PC-3 cells; experiment: Anti-proliferative toxicity against prostate cancer cell line PC-3 (CCK8); settings: 3 days
How it was run: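 PC-3 cells (4000/well, pre-cultured 24 h) exposed in triplicate to compound at final 0.00001-1.0 μM for 3 days at 37 °C, 5% CO2. Viability read by CCK8, 1-4 h at 37 °C, absorbance at 450 nm.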

[3] = tested on: VCaP cells; experiment: Anti-proliferative toxicity against prostate cancer cell line Vcap (CCK8); settings: 3 days, CCK8
How it was run: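 VCaP cells (DMEM, 10% FBS) seeded 20000 cells/well, cultured 72 h, then exposed in triplicate to compound at final well concentrations of 0.00001–0.16 μM for 3 days at 37 °C, 5% CO2. Viability by CCK8, 1–4 h at 37 °C, absorbance at 450 nm.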

Row | Compound | IC50 ([1]; Homo sapiens, 72 h) [nM] | IC50 ([2]; Homo sapiens, 72 h) [nM] | IC50 ([3]; Homo sapiens, 72 h) [nM] | IC50 [1] [nM] | IC50 [2] [nM] | IC50 [3] [nM]
1 | C[C@]12C=CC(=O)N[C@@H]1CC[C@@H]1[C@@H]2CC[C@]2(C)[C@@H](C(=O)Nc3cccc(N[C@@H]4CCC[C@@H](Nc5cccc6c5C(=O)N([C@@H]5CCC(=O)NC5=O)C6=O)C4)c3)CC[C@@H]12 [C64, N-(3-(N—(N-(4-(2-(3R-(2,6-dioxopiperidine))-isoindole-1,3-dione))-1R,3R-cyclohexanediamine))phenyl)-3-oxo-4-aza-5α-androst-1-ene-17β-carboxamide] | 0.1 to 10 | 0.1 to 10 | 0.1 to 10 |  |  | 
2 | C[C@]12C=CC(=O)N[C@@H]1CC[C@@H]1[C@@H]2CC[C@]2(C)[C@@H](C(=O)Nc3cccc(N[C@@H]4CCC[C@@H](Nc5cccc6c5CN([C@H]5CCC(=O)NC5=O)C6=O)C4)c3)CC[C@@H]12 [C65, N-(3-(N—(N-(4-(2-(3S-(2,6-dioxopiperidine))-1-oxo-2,3-dihydro-1H-isoindol))-1R,3R-cyclohexanediamine))phenyl)-3-oxo-4-aza-5α-androst-1-ene-17β-carboxamide] | 10 to 1000 | > 1000 | 10 to 1000 |  |  | 
3 | C[C@]12C=CC(=O)N[C@@H]1CC[C@@H]1[C@@H]2CC[C@]2(C)[C@@H](C(=O)Nc3cccc(N[C@@H]4CCC[C@@H](Nc5cccc6c5CN([C@@H]5CCC(=O)NC5=O)C6=O)C4)c3)CC[C@@H]12 [C66, N-(3-(N—(N-(4-(2-(3R-(2,6-dioxopiperidine))-1-oxo-2,3-dihydro-1H-isoindol))-1R,3R-cyclohexanediamine))phenyl)-3-oxo-4-aza-5α-androst-1-ene-17β-carboxamide] | > 1000 | > 1000 | > 1000 |  |  | 
4 | CC(C)(C)C(=O)OCN1C(=O)CC[C@H](N2C(=O)c3cccc(N[C@@H]4CCC[C@@H](Nc5cccc(NC(=O)[C@H]6CC[C@H]7[C@@H]8CC[C@H]9NC(=O)C=C[C@]9(C)[C@H]8CC[C@]67C)c5)C4)c3C2=O)C1=O [C67, N-(3-(N—(N-(4-(2-(3S-(1-pivaloyloxymethyl-2,6-dioxopiperidine))-isoindole-1,3-dione))-1R,3R-cyclohexanediamine))phenyl)-3-oxo-4-aza-5α-androst-1-ene-17β-carboxamide] | 0.1 to 10 | 0.1 to 10 | ≤ 0.1 |  |  | 
5 | [2H][C@@]1(Nc2cccc(NC(=O)[C@H]3CC[C@H]4[C@@H]5CC[C@H]6NC(=O)C=C[C@]6(C)[C@H]5CC[C@]34C)c2)CCC[C@@]([2H])(Nc2cccc3c2C(=O)N(C2CCC(=O)NC2=O)C3=O)C1 (stereo partly drawn) [C68, N-(3-(N—(N-(4-(2-(3-(2,6-dioxopiperidine))-isoindole-1,3-dione))-1,3-dideutero-1R,3R-cyclohexanediamine))phenyl)-3-oxo-4-aza-5α-androst-1-ene-17β-carboxamide] | 0.1 to 10 | 0.1 to 10 | ≤ 0.1 |  |  | 
6 | CC1[C@H](Nc2cccc(NC(=O)[C@H]3CC[C@H]4[C@@H]5CC[C@H]6NC(=O)C=C[C@]6(C)[C@H]5CC[C@]34C)c2)CCC[C@H]1Nc1cccc2c1C(=O)N(C1CCC(=O)NC1=O)C2=O (stereo partly drawn) [C69, N-(3-(N—(N-(4-(2-(3-(2,6-dioxopiperidine))-isoindole-1,3-dione))-2-methyl-1R,3R-cyclohexanediamine))phenyl)-3-oxo-4-aza-5α-androst-1-ene-17β-carboxamide] | 0.1 to 10 | 10 to 1000 | 0.1 to 10 |  |  | 
7 | C[C@]12C=CC(=O)N[C@@H]1CC[C@@H]1[C@@H]2CC[C@]2(C)[C@@H](C(=O)Nc3cccc(N[C@H]4C[C@H](Nc5cccc6c5C(=O)N(C5CCC(=O)NC5=O)C6=O)CC(F)(F)C4)c3)CC[C@@H]12 (stereo partly drawn) [C74, N-(3-(N—(N-(4-(2-(3-(2,6-dioxopiperidine))-isoindole-1,3-dione))-5,5-difluoro-1S,3S-cyclohexanediamine))phenyl)-3-oxo-4-aza-5α-androst-1-ene-17β-carboxamide] | 0.1 to 10 | 10 to 1000 | 0.1 to 10 |  |  | 
8 | C[C@]12C=CC(=O)N[C@@H]1CC[C@@H]1[C@@H]2CC[C@]2(C)[C@@H](C(=O)Nc3cccc(N[C@@H]4COC[C@@H](Nc5cccc6c5C(=O)N(C5CCC(=O)NC5=O)C6=O)C4)c3)CC[C@@H]12 (stereo partly drawn) [C75, N-(3-(N—(N-(4-(2-(3-(2,6-dioxopiperidine))-isoindole-1,3-dione))-tetrahydropyran-3S,5S-diamine))phenyl)-3-oxo-4-aza-5α-androst-1-ene-17β-carboxamide] | 10 to 1000 | 10 to 1000 | 10 to 1000 |  |  | 
9 | C[C@]12C=CC(=O)N[C@@H]1CC[C@@H]1[C@@H]2CC[C@]2(C)[C@@H](C(=O)Nc3cccc(N[C@@H]4CNC[C@@H](Nc5cccc6c5C(=O)N(C5CCC(=O)NC5=O)C6=O)C4)c3)CC[C@@H]12 (stereo partly drawn) [C76, N-(3-(N—(N-(4-(2-(3-(2,6-dioxopiperidine))-isoindole-1,3-dione))-piperidine-3S,5S-diamine))phenyl)-3-oxo-4-aza-5α-androst-1-ene-17β-carboxamide] | 10 to 1000 | 10 to 1000 | 10 to 1000 |  |  | 
10 | CN1C[C@@H](Nc2cccc(NC(=O)[C@H]3CC[C@H]4[C@@H]5CC[C@H]6NC(=O)C=C[C@]6(C)[C@H]5CC[C@]34C)c2)C[C@H](Nc2cccc3c2C(=O)N(C2CCC(=O)NC2=O)C3=O)C1 (stereo partly drawn) [C77, N-(3-(N—(N-(4-(2-(3-(2,6-dioxopiperidine))-isoindole-1,3-dione))-1-methylpiperidine-3S,5S-diamine))phenyl)-3-oxo-4-aza-5α-androst-1-ene-17β-carboxamide] | 10 to 1000 | 10 to 1000 | 10 to 1000 |  |  | 
11 | C[C@]12C=CC(=O)N[C@@H]1CC[C@@H]1[C@@H]2CC[C@]2(C)[C@@H](C(=O)Nc3cccc(N[C@@H]4CCC[C@@H](Nc5ccc(F)c6c5C(=O)N(C5CCC(=O)NC5=O)C6=O)C4)c3)CC[C@@H]12 (stereo partly drawn) [C78, N-(3-(N—(N-(7-fluoro-4-(2-(3-(2,6-dioxopiperidine))-isoindole-1,3-dione))-1R,3R-cyclohexanediamine))phenyl)-3-oxo-4-aza-5α-androst-1-ene-17β-carboxamide] | 0.1 to 10 | 0.1 to 10 | 0.1 to 10 |  |  | 
12 | C[C@]12C=CC(=O)N[C@@H]1CC[C@@H]1[C@@H]2CC[C@]2(C)[C@@H](C(=O)Nc3cccc(N[C@@H]4CCC[C@@H](Nc5cc(F)cc6c5C(=O)N(C5CCC(=O)NC5=O)C6=O)C4)c3)CC[C@@H]12 (stereo partly drawn) [C79, N-(3-(N—(N-(6-fluoro-4-(2-(3-(2,6-dioxopiperidine))-isoindole-1,3-dione))-1R,3R-cyclohexanediamine))phenyl)-3-oxo-4-aza-5α-androst-1-ene-17β-carboxamide] | 0.1 to 10 | 0.1 to 10 | 0.1 to 10 |  |  | 
13 | CN(c1cccc(NC(=O)[C@H]2CC[C@H]3[C@@H]4CC[C@H]5NC(=O)C=C[C@]5(C)[C@H]4CC[C@]23C)c1)[C@@H]1CCC[C@@H](Nc2cccc3c2C(=O)N(C2CCC(=O)NC2=O)C3=O)C1 (stereo partly drawn) [C80, N-(3-(N—(N-methyl-N-(4-(2-(3-(2,6-dioxopiperidine))-isoindole-1,3-dione))-1R,3R-cyclohexanediamine))phenyl)-3-oxo-4-aza-5α-androst-1-ene-17β-carboxamide] | 0.1 to 10 | 10 to 1000 | 0.1 to 10 |  |  | 
14 | C[C@]12CCC(=O)N[C@@H]1CC[C@@H]1[C@@H]2CC[C@]2(C)[C@@H](C(=O)Nc3cccc(N[C@@H]4CCC[C@@H](Nc5cccc6c5C(=O)N(C5CCC(=O)NC5=O)C6=O)C4)c3)CC[C@@H]12 (stereo partly drawn) [C81, N-(3-(N—(N-(4-(2-(3-(2,6-dioxopiperidine))-isoindole-1,3-dione))-1R,3R-cyclohexanediamine))phenyl)-3-oxo-4-aza-5α-androstane-17β-carboxamide] |  |  |  | 0.1 to 10 | 10 to 1000 | 0.1 to 10
15 | N-(3-(N—(N-(4-(2-(3-(2,6-dioxopiperidine))-isoindole-1,3-dione))-6S-methyl-1S,3R-cyclohexanediamine))phenyl)-3-oxo-4-aza-5α-androst-1-ene-17β-carboxamide and N-(3-(N—(N-(4-(2-(3-(2,6-dioxopiperidine))-isoindole-1,3-dione))-4R-methyl-1R,3S-cyclohexanediamine))phenyl)-3-oxo-4-aza-5α-androst-1-ene-17β-carboxamide [C70] |  |  |  | 0.1 to 10 | 10 to 1000 | 0.1 to 10
16 | N-(3-(N—(N-(4-(2-(3-(2,6-dioxopiperidine))-isoindole-1,3-dione))-(1R,4S)-bicyclo[2,2,1]heptane-2R,6R-diamine))phenyl)-3-oxo-4-aza-5α-androst-1-ene-17β-carboxamide and N-(3-(N—(N-(4-(2-(3-(2,6-dioxopiperidine))-isoindole-1,3-dione))-(1S,4R)-bicyclo[2,2,1]heptane-2R,6R-diamine))phenyl)-3-oxo-4-aza-5α-androst-1-ene-17β-carboxamide [C71] |  |  |  | 10 to 1000 | > 1000 | 10 to 1000
17 | N-(3-(N—(N-(4-(2-(3-(2,6-dioxopiperidine))-isoindole-1,3-dione))-(1R,4S)-bicyclo[2,2,2]octane-2R,6R-diamine))phenyl)-3-oxo-4-aza-5α-androst-1-ene-17β-carboxamide and N-(3-(N—(N-(4-(2-(3-(2,6-dioxopiperidine))-isoindole-1,3-dione))-(1S,4R)-bicyclo[2,2,2]octane-2R,6R-diamine))phenyl)-3-oxo-4-aza-5α-androst-1-ene-17β-carboxamide [C72] |  |  |  | 10 to 1000 | > 1000 | 10 to 1000
